What was measured:
[1] = biological target: T1, chimeric REV1 CTD protein (Mus musculus, UniProt Q920Q2); experiment: Isothermal titration calorimetry; type: binding; details: 25° C.
T1 construct: the mouse REV1 CTD (F1150-T1249); His10-GB1 (TEV site) (N, cleaved yes); made in house; host or cells: E. coli BL21 Star (DE3)
T1 sequence (Q920Q2 1150-1249): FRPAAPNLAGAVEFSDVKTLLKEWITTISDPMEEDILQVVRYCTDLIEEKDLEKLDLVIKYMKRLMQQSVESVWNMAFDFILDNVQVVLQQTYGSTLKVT
Protocol: Isothermal titration calorimetry measurements were carried out using a MicroCal VP-ITC instrument at 25° C., with the chimeric REV1 CTD protein (300 μM) in the syringe and compound (15 μM) in the cell. Compounds were initially dissolved in 50% MPD. Protein and compound samples were diluted in a buffer containing 50 mM HEPES pH 7.5, 50 mM KCl, 2 mM TCEP, 2% DMSO and 0.1% MPD. Microcal Origin 7 software was used to analyze the data.

A375 cells = experiment: qRT-PCR of p21 mRNA; type: cell-based, human; details: cisplatin 1 μM alone
Protocol: Total RNA was isolated by using the RNeasy Mini kit (Qiagen) from cells treated with RE01 (1.5 μM), cisplatin (1 μM) and a combination of both RE01 (1.5 μM) and cisplatin (1 μM). 5 ng of RNA from each sample was mixed with 10 μl of Applied Biosystems™ PowerUp™ SYBR™ Green Master Mix (ThermoFisher), 1 μl of MultiScribe™ Reverse Transcriptase (ThermoFisher), 0.1 μl of RNaseOUT™ Recombinant Ribonuclease Inhibitor and 5.9 μl of RNase-free water, and run in a one-step qRT-PCR reaction. Each reaction was run in triplicate. Primers used were: p21 F 5′-[…]-3′ (SEQ ID NO: 9), p21 R 5-CGGCGTTTGGAGTGG TAGAAA-3′ (SEQ ID NO: 10); GAPDH F 5′-[…]-3′ (SEQ ID NO: 11), GAPDH R 5′-[…]-3′ (SEQ ID NO: 12).

[2] = tested on: REV1 CTD-REV7 interaction; experiment: ELISA assay probing the REV1 CTD-REV7 interaction; type: binding, mouse; details: ratio of test compound IC50 to RE01 IC50
Protocol: The ELISA assay for probing the REV1 CTD-REV7 interaction was carried out by immobilizing 50 nM His8-tagged REV7/3 in 200 μL phosphate-buffered saline (PBS, Gibco) containing 0.2% BSA in a Ni-NTA coated 96-well plate (HisSorb, Qiagen) for 30 minutes. Unbound His8-tagged REV7/3 was removed by washing the wells four times with PBS containing 0.05% Tween-20. […] After incubation for 30 minutes, the wells were washed four times with PBS containing 0.05% Tween-20 to remove the unbound FLAG-tagged POL κ RIR-REV1 CTD. A solution of the anti-FLAG horseradish peroxidase (HRP)-conjugated antibody (Sigma-Aldrich) in PBS containing 0.2% BSA was then added to the wells. After incubating for 1 hour, the antibody was washed off four times with PBS containing 0.05% Tween-20. The 3,3′,5,5′-tetramethylbenzedine (TMB) substrate (SureBlue TMB, Seracare) was added to the wells. After incubation of 20-30 minutes, the reaction was quenched with 1 M HCl. A SpectraMax plate reader (Molecular Devices) was used to measure absorbance at 450 nm.

SMILES	Relative IC50 Ratio [2]	also measured
CC(C)CC(=O)c1c(N2CCOCC2)[nH]c2c(Cl)ccc([N+](=O)[O-])c2c1=O [RE07, 8-chloro-3-(3-methylbutanoyl)-2-morpholino-5-nitroquinolin-4(1H)-one]	–	REV1 CTD binding [1]: abolished the REV1 CTD binding
N.N.[Cl][Pt][Cl] [cisplatin, cis-diammineplatinum(II) dichloride, reference compound]	–	levels of the p21 biomarker (A375 cells): elevated levels
CC(C)CC(=O)c1c(Nc2ccc(Cl)cc2Cl)[nH]c2c(Cl)cc([N+](=O)[O-])cc2c1=O [RE34, 8-chloro-2-((2,4-dichlorophenyl)amino)-3-(3-methylbutanoyl)-6-nitroquinolin-4(1H)-one]	A (A represents a ratio of test compound IC50 to RE01 IC50 of less than 0.8)	–
CC(C)CC(=O)c1c(Nc2ccc(C(C)C)cc2)[nH]c2c(Cl)ccc([N+](=O)[O-])c2c1=O [RE21, 8-chloro-2-((4-isopropylphenyl)amino)-3-(3-methylbutanoyl)-5-nitroquinolin-4(1H)-one]	C (C represents a ratio of test compound IC50 to RE01 IC50 between 1.5-10)	–
COc1ccc(Cl)c2[nH]c(Nc3ccc(Cl)cc3Cl)c(C(=O)CC(C)C)c(=O)c12 [RE29, 8-chloro-2-((2,4-dichlorophenyl)amino)-5-methoxy-3-(3-methylbutanoyl)quinolin-4(1H)-one]	A (A represents a ratio of test compound IC50 to RE01 IC50 of less than 0.8)	–
CC(C)CC(=O)c1c(Nc2ccccc2Cl)[nH]c2c(Cl)ccc([N+](=O)[O-])c2c1=O [RE23, 8-chloro-2-((2-chlorophenyl)amino)-3-(3-methylbutanoyl)-5-nitroquinolin-4(1H)-one]	B (B represents a ratio of test compound IC50 so to RE1 IC50 between 0.8 and 1.5)	–
CC(=O)c1c(Nc2ccc(Cl)cc2Cl)[nH]c2c(Cl)ccc([N+](=O)[O-])c2c1=O [RE12, 3-acetyl-8-chloro-2-((2,4-dichlorophenyl)amino)-5-nitroquinolin-4(1H)-one]	B (B represents a ratio of test compound IC50 so to RE1 IC50 between 0.8 and 1.5)	–
CC(C)CC(=O)c1c(Nc2ccc(Cl)cc2Cl)[nH]c2c(F)ccc([N+](=O)[O-])c2c1=O [RE38, 2-((2,4-dichlorophenyl)amino)-8-fluoro-3-(3-methylbutanoyl)-5-nitroquinolin-4(1H)-one]	B (B represents a ratio of test compound IC50 so to RE1 IC50 between 0.8 and 1.5)	–
CC(C)CC(=O)c1c(Nc2ccc(Cl)cc2Cl)[nH]c2c(C(=O)O)ccc(Cl)c2c1=O [RE08, 5-chloro-2-((2,4-dichlorophenyl)amino)-3-(3-methylbutanoyl)-4-oxo-1,4-dihydroquinoline-8-carboxylic acid]	B (B represents a ratio of test compound IC50 so to RE1 IC50 between 0.8 and 1.5)	–
O=C(O)/C(O)=C/C(=O)c1c(Nc2ccc(Cl)cc2Cl)[nH]c2c(Cl)ccc([N+](=O)[O-])c2c1=O [RE13, (Z)-4-(8-chloro-2-((2,4-dichlorophenyl)amino)-5-nitro-4-oxo-1,4-dihydroquinolin-3-yl)-2-hydroxy-4-oxobut-2-enoic acid]	A (A represents a ratio of test compound IC50 to RE01 IC50 of less than 0.8)	–
CC(C)CC(=O)c1c(Nc2ccc(Cl)cc2C(F)(F)F)[nH]c2c(Cl)ccc([N+](=O)[O-])c2c1=O [RE18, 8-chloro-2-((4-chloro-2-(trifluoromethyl)phenyl)amino)-3-(3-methylbutanoyl)-5-nitroquinolin-4(1H)-one]	A (A represents a ratio of test compound IC50 to RE01 IC50 of less than 0.8)	–
CC(C)CC(=O)c1c(Nc2ccc(I)cc2I)[nH]c2c(Cl)ccc([N+](=O)[O-])c2c1=O [RE17, 8-chloro-2-((2,4-diiodophenyl)amino)-3-(3-methylbutanoyl)-5-nitroquinolin-4(1H)-one]	B (B represents a ratio of test compound IC50 so to RE1 IC50 between 0.8 and 1.5)	–
CC(C)CC(=O)c1c(Nc2c(F)cc(F)cc2F)[nH]c2c(Cl)ccc([N+](=O)[O-])c2c1=O [RE33, 8-chloro-3-(3-methylbutanoyl)-5-nitro-2-((2,4,6-trifluorophenyl)amino)quinolin-4(1H)-one]	C (C represents a ratio of test compound IC50 to RE01 IC50 between 1.5-10)	–
CC(=NO)c1c(Nc2ccc(Cl)cc2Cl)[nH]c2c(Cl)ccc([N+](=O)[O-])c2c1=O [RE14, 8-chloro-2-((2,4-dichlorophenyl)amino)-3-(1-(hydroxyimino)ethyl)-5-nitroquinolin-4(1H)-one]	B (B represents a ratio of test compound IC50 so to RE1 IC50 between 0.8 and 1.5)	–

— US11801242B2, “Compositions and methods for adjuvant cancer therapeutics” (DUKE UNIVERSITY, priority 2018, dated 2023)
